Test results as given in patent US9326931B2, “Use of porphyrin-type catalytic oxidation compounds as an anti-dandruff agent” (L'OREAL, priority 2012, dated 2016).

Test: Test 1: Oxidation of 2,2,6,6-tetramethylpiperidine (TEMP), EPR detection of TEMPO
Conditions: porphyrin compound at 0.5 μM, 50 mM TEMP, phosphate buffer pH 7.4, oxygen-saturated, daylight, 1 hour
Experimental: The oxidizing agent used in this test is dissolved oxygen. A solution comprising a phosphate buffer (pH 7.4), 50 mM of the compound 2,2,6,6-tetramethylpiperidine (TEMP) and a porphyrin compound at 0.5 μM is prepared. The solution is saturated with oxygen. The solution is placed in daylight. After 1 hour, electron paramagnetic resonance (EPR) spectrometry of the oxidized form of the compound 2,2,6,6-tetramethylpiperidine (TEMP), which corresponds to the compound […], known as TEMPO, is performed. In accordance with the scientific publication Lion et al., 1976; Moan and Wold, 1979, the presence of the compound in TEMPO form is indicative of the oxidation produced by oxygen on the compound 2,2,6,6-tetramethylpiperidine and thus of the catalytic effect of the porphyrin compound. […] With a porphyrin compound according to the invention, the appearance of the TEMPO compound is observed after 1 hour of placing in contact.

copper chlorophyllin
catalytic oxidation activity: formation of the TEMPO compound from TEMP (test 1): does not lead to the formation of the TEMPO compound
